Literature values in patent US7083803B2, “Ocular solutions” (Advanced Ocular Systems Limited, priority 2003, dated 2006).

Tests used:
[1] = administered systemically

C=CC[C@@H]1/C=C(\C)C[C@H](C)C[C@H](OC)[C@H]2O[C@@](O)(C(=O)C(=O)N3CCCC[C@H]3C(=O)O[C@H](/C(C)=C/[C@@H]3CC[C@@H](O)[C@H](OC)C3)[C@H](C)[C@@H](O)CC1=O)[C@H](C)C[C@@H]2OC [Tacrolimus, tacrolimus]
renal and hepatic toxicity [1]: significant renal and hepatic toxicity
solubility in chloroform (chloroform): very soluble
solubility in ethanol (ethanol): freely soluble
solubility in methanol (methanol): very soluble
solubility in water (water): practically insoluble
local tolerability (atopic dermatitis; topical administration): well tolerated locally
adverse effects, treated versus control groups (atopic dermatitis; topical administration for dermatoses at concentrations up to 0.3%): no significant difference
clinical improvement in atopic dermatitis (atopic dermatitis; topical administration, doses 0.03%–0.3%, after 2–3 weeks treatment): significant clinical improvement
